Test results published in patent publication US9504729B2, “Antiangiogenic small molecules and methods of use” (The United States of America, as represented by the …, priority 2009, dated 2016).

System: angiogenesis genes in dermal microvascular endothelial cells
Experiment: Real time RT-PCR of angiogenesis gene expression during endothelial tube formation
Format: cell-based
Conditions: 1 μM SM, 24 hours

COc1cc2cc(c1Cl)N(C)C(=O)CC(OC(=O)C(C)C)C1(C)OC1C(C)C1CC(O)(NC(=O)O1)C(OC)/C=C/C=C(\C)C2 (centres unmarked) [compound 292222]
Log2 fold-change of gene expression: 1839: −0.1 | Log2 fold-change of gene expression: 4247: 0.5 | Log2 fold-change of gene expression: 5569: 1.5 | Log2 fold-change of gene expression: 8131: 0.1 | Log2 fold-change of gene expression: 9569: 0.2 | Log2 fold-change of gene expression: 10988: 1.0 | Log2 fold-change of gene expression: 23001: −0.8 | Log2 fold-change of gene expression: 55332: 2.4 | Log2 fold-change of gene expression: 57722: 0.0 | Log2 fold-change of gene expression: 58488: 1.0 | Log2 fold-change of gene expression: 90780: 0.1 | Log2 fold-change of gene expression: 134265: −1.3 | Log2 fold-change of gene expression: AKT1: 0.7 | Log2 fold-change of gene expression: ANGPT1: 0.9 | Log2 fold-change of gene expression: ANGPT2: −1.3 | Log2 fold-change of gene expression: ANGPTL3: 0.6 | Log2 fold-change of gene expression: ANGPTL4: 1.3 | Log2 fold-change of gene expression: ANPEP: −0.6 | Log2 fold-change of gene expression: ANTXR1: −0.2 | Log2 fold-change of gene expression: APOE: −2.2 | Log2 fold-change of gene expression: ARHGEF1: −0.9 | Log2 fold-change of gene expression: Acvrl1: 0.0 | Log2 fold-change of gene expression: Adcy4: −0.4 | Log2 fold-change of gene expression: BAL1: 0.2 | Log2 fold-change of gene expression: BMP1: 0.4 | Log2 fold-change of gene expression: C1orf54: −0.1 | Log2 fold-change of gene expression: CALD1: 0.6 | Log2 fold-change of gene expression: CCL2: 0.9 | Log2 fold-change of gene expression: CCL11: 0.2 | Log2 fold-change of gene expression: CD248: 1.3 | Log2 fold-change of gene expression: CDH5: −0.1 | Log2 fold-change of gene expression: CENTD3: −0.5 | Log2 fold-change of gene expression: CLIC1: 6.6 | Log2 fold-change of gene expression: COL4A3: 2.0 | Log2 fold-change of gene expression: COL18A1: 1.2 | Log2 fold-change of gene expression: COMT: −0.2 | Log2 fold-change of gene expression: CST4: 0.8 | Log2 fold-change of gene expression: CTTNBP2NL: 0.2 | Log2 fold-change of gene expression: CXCL3: 5.0 | Log2 fold-change of gene expression: CXCL5: 3.4 | Log2 fold-change of gene expression: CXCL6: 0.4 | Log2 fold-change of gene expression: CXCL9: 0.4 | Log2 fold-change of gene expression: CXCL10: 0.8 | Log2 fold-change of gene expression: Calcr1: −1.1 | Log2 fold-change of gene expression: Caskin2: −6.7 | Log2 fold-change of gene expression: Ccbp2: 0.4 | Log2 fold-change of gene expression: Cldn5: −0.1 | Log2 fold-change of gene expression: DGKG: 2.9 | Log2 fold-change of gene expression: DKK3: −1.1 | Log2 fold-change of gene expression: DLL4: −2.2 | Log2 fold-change of gene expression: DUT: −0.4 | Log2 fold-change of gene expression: EFNA1: 0.9 | Log2 fold-change of gene expression: EFNA3: 0.1 | Log2 fold-change of gene expression: EFNB2: −2.2 | Log2 fold-change of gene expression: EGF: 2.8 | Log2 fold-change of gene expression: ENG: −0.9 | Log2 fold-change of gene expression: EPHB4: −0.5 | Log2 fold-change of gene expression: EREG: 5.0 | Log2 fold-change of gene expression: ESAM1: −1.1 | Log2 fold-change of gene expression: EXTL3: 0.8 | Log2 fold-change of gene expression: Egf17: −1.2 | Log2 fold-change of gene expression: Ehd4: −1.4 | Log2 fold-change of gene expression: Entpd1: −5.5 | Log2 fold-change of gene expression: Epas1: −1.7 | Log2 fold-change of gene expression: EphB1: 0.9 | Log2 fold-change of gene expression: Erg: 3.7 | Log2 fold-change of gene expression: FGF1: −1.4 | Log2 fold-change of gene expression: FGF2: −0.6 | Log2 fold-change of gene expression: FGFR3: 0.8 | Log2 fold-change of gene expression: FIGF: 0.1 | Log2 fold-change of gene expression: FLT1: −0.2 | Log2 fold-change of gene expression: Fgd5: −0.8 | Log2 fold-change of gene expression: GPCR124: −1.9 | Log2 fold-change of gene expression: GRRP1: 0.1 | Log2 fold-change of gene expression: Grp116: −4.4 | Log2 fold-change of gene expression: HAND2: 1.0 | Log2 fold-change of gene expression: HGF: 1.3 | Log2 fold-change of gene expression: HIF1A: −0.7 | Log2 fold-change of gene expression: HPSE: 1.6 | Log2 fold-change of gene expression: Hspa12b: −2.2 | Log2 fold-change of gene expression: ID1: 0.0 | Log2 fold-change of gene expression: ID3: −0.2 | Log2 fold-change of gene expression: IFNA1: 0.8 | Log2 fold-change of gene expression: IFNB1: 1.1 | Log2 fold-change of gene expression: IFNG: 3.1 | Log2 fold-change of gene expression: IGF1: 6.0 | Log2 fold-change of gene expression: IL1B: 4.3 | Log2 fold-change of gene expression: IL6: 3.0 | Log2 fold-change of gene expression: IL8: 13.9 | Log2 fold-change of gene expression: ITGAV: 1.2 | Log2 fold-change of gene expression: ITGB3: 2.5 | Log2 fold-change of gene expression: Icam1: 0.5 | Log2 fold-change of gene expression: Icam2: 0.1 | Log2 fold-change of gene expression: JAG1: 1.6 | Log2 fold-change of gene expression: KDR: −1.2 | Log2 fold-change of gene expression: Kifc1: 0.5 | Log2 fold-change of gene expression: LAMAS5: −0.4 | Log2 fold-change of gene expression: LECT1: 1.4 | Log2 fold-change of gene expression: LEP: −0.6 | Log2 fold-change of gene expression: Lasts2: 0.1 | Log2 fold-change of gene expression: Lrrk1: −0.1 | Log2 fold-change of gene expression: MDK: 0.8 | Log2 fold-change of gene expression: MMP2: 2.8 | Log2 fold-change of gene expression: MMP9: 3.3 | Log2 fold-change of gene expression: MMP11: 0.1 | Log2 fold-change of gene expression: MRC2: 0.6 | Log2 fold-change of gene expression: Mmm2: −1.0 | Log2 fold-change of gene expression: Myo1b: −1.5 | Log2 fold-change of gene expression: NID1: −2.5 | Log2 fold-change of gene expression: NM023516: 0.4 | Log2 fold-change of gene expression: NRP1: 0.8 | Log2 fold-change of gene expression: NRP2: 1.0 | Log2 fold-change of gene expression: Notch4: −0.4 | Log2 fold-change of gene expression: Npr3: 0.9 | Log2 fold-change of gene expression: PALD: 1.8 | Log2 fold-change of gene expression: PDCD2: 0.2 | Log2 fold-change of gene expression: PDGFA: 1.6 | Log2 fold-change of gene expression: PECAM1: −0.7 | Log2 fold-change of gene expression: PGF: 0.6 | Log2 fold-change of gene expression: PLAU: 2.7 | Log2 fold-change of gene expression: PLG: −0.7 | Log2 fold-change of gene expression: PNMT: 0.1 | Log2 fold-change of gene expression: PROK2: 1.9 | Log2 fold-change of gene expression: PTGS1: 2.0 | Log2 fold-change of gene expression: PTPRCAP: 0.1 | Log2 fold-change of gene expression: Pltp: 0.4 | Log2 fold-change of gene expression: Ptprb: 0.3 | Log2 fold-change of gene expression: Ptprm: −0.1 | Log2 fold-change of gene expression: RAMP2: −0.6 | Log2 fold-change of gene expression: RASD2: 0.3 | Log2 fold-change of gene expression: Rasip1: −0.3 | Log2 fold-change of gene expression: S1PR1: −0.3 | Log2 fold-change of gene expression: SERPINF1: 2.3 | Log2 fold-change of gene expression: SPHK1: 2.0 | Log2 fold-change of gene expression: STAB1: 0.2 | Log2 fold-change of gene expression: Sdc4: 0.7 | Log2 fold-change of gene expression: Sdpr: −4.9 | Log2 fold-change of gene expression: Slc43a3: 1.0 | Log2 fold-change of gene expression: Slco2a1: −5.3 | Log2 fold-change of gene expression: TEK: 2.0 | Log2 fold-change of gene expression: TGFA: −3.4 | Log2 fold-change of gene expression: TGFB1: 1.1 | Log2 fold-change of gene expression: TGFB2: 1.9 | Log2 fold-change of gene expression: TGFBR1: 1.8 | Log2 fold-change of gene expression: THBS1: 1.1 | Log2 fold-change of gene expression: THBS2: 1.9 | Log2 fold-change of gene expression: THY1: −8.0 | Log2 fold-change of gene expression: TIMP1: 1.6 | Log2 fold-change of gene expression: TIMP2: 1.1 | Log2 fold-change of gene expression: TIMP3: −0.4 | Log2 fold-change of gene expression: TNF: 1.0 | Log2 fold-change of gene expression: TNS1: −0.3 | Log2 fold-change of gene expression: TNS3: 0.5 | Log2 fold-change of gene expression: TRA2B: −0.6 | Log2 fold-change of gene expression: TYMP: −0.1 | Log2 fold-change of gene expression: VEGFA: 3.2 | Log2 fold-change of gene expression: VEGFC: 2.7 | Log2 fold-change of gene expression: VGLL4: −0.8 | Log2 fold-change of gene expression: Vwf: −3.3 | Log2 fold-change of gene expression: copa: 0.2 | Log2 fold-change of gene expression: itbp4: 0.1 | Log2 fold-change of gene expression: ralb: −0.4 | Log2 fold-change of gene expression: stard9: 0.8 | Log2 fold-change of gene expression: B2M (1st listing (r49)): −0.4 | Log2 fold-change of gene expression: HPRT1 (1st listing (r50)): 0.3 | Log2 fold-change of gene expression: RPL13A (1st listing (r51)): 0.7 | Log2 fold-change of gene expression: GADPH (1st listing (r52)): −0.1 | Log2 fold-change of gene expression: ACTB (1st listing (r53)): −0.8 | Log2 fold-change of gene expression: PLXDC1 (1st listing (r74)): −0.1 | Log2 fold-change of gene expression: TNFAIP2 (1st listing (r91)): 0.6 | Log2 fold-change of gene expression: Robo4 (1st listing (r95)): 1.1 | Log2 fold-change of gene expression: 151516 (1st listing (r134)): 0.7 | Log2 fold-change of gene expression: TNFAIP2 (2nd listing (r92)): 0.2 | Log2 fold-change of gene expression: B2M (2nd listing (r97)): 1.3 | Log2 fold-change of gene expression: HPRT1 (2nd listing (r98)): 1.4 | Log2 fold-change of gene expression: RPL13A (2nd listing (r99)): 1.7 | Log2 fold-change of gene expression: GADPH (2nd listing (r100)): 1.4 | Log2 fold-change of gene expression: ACTB (2nd listing (r101)): −6.3 | Log2 fold-change of gene expression: PLXDC1 (2nd listing (r104)): 0.3 | Log2 fold-change of gene expression: 151516 (2nd listing (r139)): 0.7 | Log2 fold-change of gene expression: Robo4 (2nd listing (r188)): 0.0 | Log2 fold-change of gene expression: B2M (3rd listing (r145)): 0.0 | Log2 fold-change of gene expression: HPRT1 (3rd listing (r146)): 0.2 | Log2 fold-change of gene expression: RPL13A (3rd listing (r147)): 0.3 | Log2 fold-change of gene expression: GADPH (3rd listing (r148)): −0.1 | Log2 fold-change of gene expression: ACTB (3rd listing (r149)): −0.9 | Log2 fold-change of gene expression: B2M (4th listing (r193)): 0.6 | Log2 fold-change of gene expression: HPRT1 (4th listing (r194)): 0.4 | Log2 fold-change of gene expression: RPL13A (4th listing (r195)): 1.2 | Log2 fold-change of gene expression: GADPH (4th listing (r196)): −0.2 | Log2 fold-change of gene expression: ACTB (4th listing (r197)): −0.6
